Patent US20240391923A1, “METHIONINE ADENOSYLTRANSFERASE 2A INHIBITOR FOR TREATING MTAP DELETION-TYPE CANCER” (SUZHOU GENHOUSE BIO CO., LTD., priority 2022, published 2024)
Where two headings read alike, the source gives them in different places.

Experiments:
[1] = tested on: DOHH-2 cell strain; experiment: Tumor cell proliferation inhibition assay (CellTiter-Glo), DOHH-2; type: cell-based; settings: Homo sapiens, 120 h, DOHH-2 cells, 5-day treatment
Summary of the method: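 Growth inhibition is evaluated from cellular ATP measured with CellTiter-Glo once cells have been treated for 5 days. Compounds are added 24 h after seeding as ten threefold dilutions starting at 10 μM, with a separate DMSO treatment group.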

[2] = Metabolic stability test in hepatocytes, rat; type: in vitro ADME; settings: hepatocytes (suspension), Table 5: metabolic stability in hepatocytes, up to 90 min, read-out: Metabolic half-life in rat liver microsome (T½, min)
Method: This experimental example was used to test the metabolic stability of the compounds in hepatocytes.
A suspension of hepatocytes was prepared at 0.5×10^6/mL with a pre-heated medium, then 198 μL of the pre-heated cell suspension was added to a 96-well plate. To each well of the 96-well plate, 2 μL of the test compound was added so that the final concentration was 1 μM, and 2 replicate wells were set. For the T=0 min sample, the compound was mixed well with the cells for 1 min, then […] was immediately added to 125 μL of a stop solution (an acetonitrile solution containing 200 ng/mL tolbutamide and 200 ng/mL labetalol) under an ice bath and mixed well. At the same time, all the plates were placed in an incubator at 37° C. with 5% CO2, with the shaker set at 600 rpm. The sample was mixed well at 15, 30, 60, and 90 min of incubation, respectively, and 25 μL of the sample was added to 125 μL of a stop solution (an acetonitrile solution containing 200 ng/mL tolbutamide and 200 ng/mL labetalol) under an ice bath, mixed well, and shaken at 500 rpm for 10 min. Subsequently, the plate was centrifuged for 20 min at 3220×g at 4° C. After the centrifugation was completed, 80 μL of the supernatant from each well was transferred to another 96-well plate containing 240 μL of ultrapure water. Subsequently, analysis was carried out using LC-MS/MS, and intrinsic clearance (CLint) and half-life (T½) were calculated.

[3] = target: T1, CYP2C9 (Homo sapiens, UniProt P11712); experiment: Cytochrome oxidase P450 inhibition test, CYP2C9; type: in vitro ADME; settings: liver microsome incubation
T1 construct: from tissue; host or cells: liver microsome
T1 sequence (P11712 whole entry): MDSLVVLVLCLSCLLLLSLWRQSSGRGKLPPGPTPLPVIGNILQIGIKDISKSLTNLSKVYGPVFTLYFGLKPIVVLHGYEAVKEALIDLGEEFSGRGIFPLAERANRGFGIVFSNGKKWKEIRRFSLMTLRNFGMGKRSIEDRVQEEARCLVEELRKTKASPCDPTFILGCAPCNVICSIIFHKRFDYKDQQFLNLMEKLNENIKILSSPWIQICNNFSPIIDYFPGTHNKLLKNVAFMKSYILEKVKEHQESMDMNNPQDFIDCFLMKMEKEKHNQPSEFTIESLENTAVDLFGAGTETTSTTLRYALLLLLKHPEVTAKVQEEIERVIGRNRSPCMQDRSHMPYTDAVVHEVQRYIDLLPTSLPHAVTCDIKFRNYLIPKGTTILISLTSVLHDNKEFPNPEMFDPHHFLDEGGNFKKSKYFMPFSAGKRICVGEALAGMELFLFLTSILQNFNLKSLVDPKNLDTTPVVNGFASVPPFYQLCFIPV
Method: 100 mM K-Buffer: 9.5 mL of stock solution A was mixed with 40.5 mL of stock solution B, the total volume was adjusted to […] with ultrapure water, and the buffer was titrated to pH 7.4 with KOH or H3PO4. • Starting material A (1 M potassium dihydrogen phosphate): 136.5 g of potassium dihydrogen phosphate in 1 L of water. • Stock B […] in 1 L of water. The test substance powder was prepared into a stock solution with a certain concentration using DMSO or other organic solvents, which was then further diluted using a proper organic solvent. The extracorporeal incubation system for CYP450 enzyme metabolism phenotype study was biochemical reaction of a prepared liver microsome, a redox coenzyme, and an enzyme-specific selective inhibitor in simulated physiological temperature and environment. The concentration of the parent drug or a metabolite thereof in the incubation solution was determined by LC-MS/MS.

[4] = Stability test in liver microsomes, human; type: in vitro ADME, humans; settings: human liver microsomes 0.5 mg/mL, 1.0 μM substrate, up to 60 min; read-out: Metabolic half-life in human liver microsome ( T1/2, min)
[5] = target: T2, PXR (Homo sapiens, UniProt O75469); experiment: PXR activation test in stably transfected DPX2 cells; type: cell-based; settings: for PXR activation fold (10 μM) / PXR activation fold (30 μM): DPX2 cells, 48 h; for activation activity on PXR at 30 μM (in words): summary of Table 10
T2 construct: host or cells: DPX2 cells
T2 sequence (O75469 1-434): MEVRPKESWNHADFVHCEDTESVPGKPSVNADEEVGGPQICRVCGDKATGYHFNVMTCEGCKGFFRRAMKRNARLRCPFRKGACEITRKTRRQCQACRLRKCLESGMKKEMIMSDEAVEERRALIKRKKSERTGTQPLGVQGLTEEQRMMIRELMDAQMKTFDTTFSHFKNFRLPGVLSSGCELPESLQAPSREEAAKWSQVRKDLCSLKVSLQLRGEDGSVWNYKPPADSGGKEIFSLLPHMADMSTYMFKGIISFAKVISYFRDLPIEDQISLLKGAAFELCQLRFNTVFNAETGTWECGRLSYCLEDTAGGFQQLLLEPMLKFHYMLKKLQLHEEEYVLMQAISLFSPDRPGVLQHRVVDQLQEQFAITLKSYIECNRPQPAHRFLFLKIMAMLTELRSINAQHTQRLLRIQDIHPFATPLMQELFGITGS
Method: In this example, the compound was tested for PXR activation.
100 μL of stably transfected DPX2 cells were seeded per well of a 96-well cell culture plate (4.5×10^5 cells/mL in Puracyp medium), followed by placing the 96-well plate in a 37° C. incubator. After 24 h, the 96-well plate was taken out from the incubator, the medium was replaced with 100 μL of the test compound (at a final concentration of 10 μM and 30 μM), positive control compound rifampicin (at a final concentration of 10 μM), and the DMSO treatment group (at a final concentration of 0.1%), and 3 replicate wells were set. The test plate was placed back into the incubator. After 24 h, the medium was replaced with the freshly prepared test compound and rifampicin solution, and the test plate was again placed back into the incubator. After the compound was treated for 48 h, the test plate was taken out from the incubator. The medium in the wells was discarded, the plate was washed twice with PBS, 50 μL of medium containing 1×CellTiter-Fluor™ Cell Viability Assay reagent was added, and the mixture was incubated at 37° C. for 30 min. The test plate was taken out and equilibrated to room temperature, and the fluorescence signal under the conditions of 400 nm excitation light/505 nm emission light was detected by a microplate reader.
Subsequently, 50 μL of medium containing ONE-Glo Assay reagent was added to each well, and the plate was shaken, mixed well, and incubated at room temperature for 5 min. Chemiluminescence was detected by a microplate reader. The data was analyzed to evaluate the PXR activation of the test compound.

[6] = IC50 score, read-out: Tumor cell 5-day relative growth inhibition (DOHH-2) (nM), score
[7] = IC50 value, read-out: Tumor cell 5-day relative growth inhibition (DOHH-2)

| IC50 [1, 6] [nM] | IC50 [1, 7] [nM] | half-life at 1 μM [2] [min] | IC50 [3] [nM] | half-life at 1 μM [4] [min] | PXR activation fold (10 μM) [5] [fold] | PXR activation fold (30 μM) [5] [fold] | activation activity on PXR at 30 μM (in words) [5] | SMILES |
| --- | --- | --- | --- | --- | --- | --- | --- | --- |
| < 500 | 134 | 51.1 | > 10000 |  |  |  |  | Cc1ncccc1-n1c(=O)c2nn(C)cc2c2ccc(C(F)(F)F)nc21 (single isomer, unassigned) [Compound B180] |
| 500 to 2000 | 1110 |  | > 10000 | > 145 |  |  |  | Cn1cc2c(n1)c(=O)n(-c1cccnc1)c1cc(Cl)ccc21 [Compound B12] |
| < 500 | 39.1 |  | > 10000 | 722 | 7.06 | 21.71 |  | Cn1cc2c(n1)c(=O)n(-c1cccc3[nH]ncc13)c1cc(Cl)ccc21 [Compound B60] |
| < 500 | 443 | 50.9 |  | > 145 |  |  |  | Cn1cc2c(n1)c(=O)n(-c1cccc(O)c1)c1nc(C(F)(F)F)ccc21 [Compound B148] |
|  |  |  |  |  | 7.47 | 34.49 |  | O=c1c2n[nH]cc2c2ccc(C(F)(F)F)nc2n1-c1cccnc1 [Compound B178] |
| 500 to 2000 | 1040 |  | > 30000 | > 145 | 3.63 | 3.77 | very weak | Cn1cc2c(n1)c(=O)n(-c1cccc3[nH]ncc13)c1nc(C(F)(F)F)ccc21 [Compound B181] |
|  |  |  |  | 258 |  |  |  | Cn1cc2c(n1)c(=O)n(-c1ccccc1Cl)c1nc(C(F)(F)F)ccc21 [Compound B182] |
|  |  |  |  |  | 3.37 | 7.87 | very weak | Cn1cc2c(n1)c(=O)n(-c1cccc3[nH]ncc13)c1cc(Cl)c(F)cc21 [Compound B257] |
|  |  | 150 |  |  |  |  |  | Cn1cc2c(n1)c(=O)n(-c1cccnc1C1CC1)c1cc(Cl)c(F)cc21 [Compound B340] |
